Data published in paper PMC5490399, “Glycosaminoglycan Binding and Non-Endocytic Membrane Translocation of Cell-Permeable Octaarginine Monitored by Real-Time In-Cell NMR Spectroscopy” (Pharmaceuticals, 2017).
Non-standard residues stand in square brackets, D forms with d. Residues, ends and D or L forms follow the SMILES beside them. Phe(4-CF3) = N[C@@H](Cc1ccc(C(F)(F)F)cc1)C(=O)O

Experiments:
Assay type in all cases: cell-based, human
HL60 cells [1] = conditions: 100 μM
Method: (§1) One-dimensional in-cell ^19F NMR measurements were carried out at 376.2 MHz by using a JEOL ECA400 NMR spectrometer equipped with a superconducting magnet of 9.4 T. A multinuclear probe (JEOL, NM40T10A/AT) for a 10-mm diameter tube was used. Detailed procedures of the measurement are described elsewhere. Briefly, HL60 cells (the final concentration, 1 × 10^7 cells/mL) were suspended in phosphate-buffered saline (PBS, pH 7.4) at 4 °C and put into a NMR tube. In order to confirm no contribution of energy-dependent endocytosis at 4 °C, the comparative measurement was also performed at 37 °C. To avoid cellular toxicity, the amount of D2O used for the signal lock was decreased to 10%. The sample was gently rotated to prevent the sedimentation of the cells. Field-gradient shimming was applied before the addition of the peptide, to quickly attain the spectral resolution. The measurements started immediately after the thermal equilibrium was attained, 1.5 min after the addition of the ^19F-labeled peptides. The final concentrations of ^19F-R8 and ^19F-T6 were 80 μM and 100 μM, respectively, and these were high enough to observe non-endocytic translocation. […] Cell viability, assessed by the trypan blue staining after the NMR measurement at 4 °C, was 92% ± 1% for ^19F-R8 and 94% ± 1% for ^19F-T6 with respect to the control value, 94% ± 2%. […]

HL60 cells [2] = tested on: HL60 cells
Method: as §1, with “peptides.” for “peptides. The final concentrations of ^19F-R8 and ^19F-T6 were 80 μM and 100 μM, respectively, and these were high enough to observe non-endocytic translocation.”
Cell peptide concentrations inside and outside were estimated by using the signal intensities of real-time ^19F NMR difference spectra in Figure 2b. Figure A1 illustrates how peptide concentrations were determined from the ^19F NMR spectra. […]
The concentration of these three components can be evaluated from the signal intensities by integrating the respective peak areas. […] Since the total ^19F-R8 concentration is 80 μM, the concentrations of free, bound to GAG, and membrane components are calculated to be […], 9, and 5 μM, respectively.
Figure A1 Illustration of the signal intensity estimation in the ^19F NMR difference spectrum. […] The concentration of these three components can be evaluated from the signal intensities by integrating the respective peak areas (see text).

HL60 cells [3] = experiment: Steady state 19F NMR after cell fractionation (final distribution); conditions: 19F NMR at 4 °C
Method: In the previous sections, we succeeded in comprehensive observation and quantitative analysis of the non-endocytic translocation of ^19F-R8 to the cell inside. To confirm that ^19F-R8 is actually transferred to cytosol across the cell membrane, the final distribution of ^19F-R8 was evaluated by cell fractionation after equilibrium was attained in real-time NMR measurements. Membrane solubilization and centrifugation techniques were combined in accordance with Scheme 1. First, we examined how much of ^19F-R8 was finally bound to cells. In Figure 7a, the ^19F NMR spectra of ^19F-R8 in the supernatant I is compared with total ^19F-R8 as a control at 4 °C. The ^19F NMR signal intensity of the supernatant I corresponds to ^19F-R8 that is still in a free (unbound) state under equilibrium. […] The value is consistent with the result of the real-time in-cell NMR measurement showing about 65 μM (81%) of ^19F-R8 is remaining in a free state after the equilibrium is attained (Figure 6). Next, to confirm that ^19F-R8 is actually bound to HL60 cell, the cell pellet I was solubilized by lysis buffer containing 1% Triton X-100. After the centrifugation, the supernatant II was subject to ^19F NMR measurement at 4 °C. The spectrum is shown in Figure 7b as Lysate, and 13% of the initial ^19F-R8 was detected.
It is considered that three components of ^19F-R8 are contained in the Lysate. They include ^19F-R8 bound to GAG or cell membrane, and ^19F-R8 in cytosol. We separated these components as the supernatant III and the pellet III by centrifuging the Lysate at 100,000× g. Supernatant III consists of ^19F-R8 in cytosol, and pellet III contains ^19F-R8 bound to GAG or cell membrane (referred as Membrane); see Scheme 1. […] It should be noted that the observed chemical shift of NMR signal in this system is too complicated to understand. For example, the cell solubilization exposes ^19F-R8 to numerous molecules derived from cells. Also, the cytosol fraction was obtained by lyophilization of 50 mL lysis buffer A. This leads to the increased concentrations of components (Triton X-100, Tris-HCl, EDTA, NaCl in lysis buffer A) in the final sample to be measured. The condition of the solvent such as ionic strength and pH affects the chemical shift of ^19F-R8 NMR signal. Thus the integral NMR intensity is useful for the steady state NMR spectra because it is basically proportional to the nuclear concentration.
The amount of ^19F-R8 finally delivered to the cytosol was quantified by ^19F NMR under equilibrium in combination with the cell fractionation using membrane solubilization and centrifugation. The cell fractionation procedures are summarized in Scheme 1. After the real-time ^19F NMR measurement, 4 mL of the sample were centrifuged at 1500× g for 5 min at 4 °C. Pellet I was washed twice with 4 mL of PBS and centrifuged again. Then the 8 mL of supernatant I was collected and subject to ^19F NMR measurement at 4 °C, to quantify free ^19F-R8. Next, 4 mL of lysis buffer A (1% Triton X-100, 50 mM Tris-HCl, 50 mM EDTA, 150 mM NaCl, 10% D2O) was added to pellet I, and left for 15 min on ice to complete the cell membrane solubilization. The solution was centrifuged at 15,000× g for 15 min at 4 °C, to separate pellet II and supernatant II. Then, supernatant II was collected and subjected to ^19F NMR measurement at 4 °C (called Lysate). After measurement, 50 mL of lysis buffer A was added and centrifuged at 100,000× g for 3 h at 4 °C. […]

Row | interaction with HL60 cells (change of 19F NMR and difference spectrum) (HL60 cells [2]) | peptide in a free state (supernatant I) under equilibrium (HL60 cells [3]; HL60, after real-time NMR at 4 °C, centrifugation 1500× g, pH 7.4, versus total peptide) [%] | peptide in cytosol fraction (supernatant III) (HL60 cells [3]; Lysate centrifuged at 100,000× g) | peptide in membrane fraction (pellet III) (HL60 cells [3]; Lysate centrifuged at 100,000× g, equilibrium state) | peptide detected in Lysate (supernatant II), of the initial peptide (HL60 cells [3]; pellet I solubilized with 1% Triton X-100 lysis buffer, 15,000× g, pH 7.5) [%] | peptide in DNA and cytoskeleton fraction (pellet II) (HL60 cells [3]; pellet II solubilized) | degradation of peptide in the presence of HL60 cells (integral 19F NMR intensity) (HL60 cells [2]; pH 7.4) | SMILES | Cell viability (HL60 cells [1]) | time at which transfer to cytosol was first observed (HL60 cells [2]; HL60, PBS pH 7.4, 4 °C, 80 μM peptide)
1 | no interaction occurs | – | – | – | – | – | – | CC[C@H](C)[C@H](NC(=O)CNC(=O)[C@H](CO)NC(=O)[C@H](CC(=O)O)NC(=O)[C@H](Cc1ccc(C(F)(F)F)cc1)NC(=O)[C@@H](NC(=O)[C@@H](N)[C@@H](C)O)C(C)C)C(=O)N[C@@H](CO)C(=O)N[C@@H](CCC(=O)O)C(=O)N[C@H](C(=O)N[C@@H](CCCNC(=N)N)C(=O)O)C(C)C [^19F-T6, reference compound] (H-TV[Phe(4-CF3)]DSGISEVR-OH) | 94% ± 1% | –
2 | – | 77 | observed in the cytosol fraction | within the experimental error | 13 | not yet detectable | no degradation | CC(=O)N[C@@H](Cc1ccc(C(F)(F)F)cc1)C(=O)N[C@@H](CCCNC(=N)N)C(=O)N[C@@H](CCCNC(=N)N)C(=O)N[C@@H](CCCNC(=N)N)C(=O)N[C@@H](CCCNC(=N)N)C(=O)N[C@@H](CCCNC(=N)N)C(=O)N[C@@H](CCCNC(=N)N)C(=O)N[C@@H](CCCNC(=N)N)C(=O)N[C@@H](CCCNC(=N)N)C(N)=O [^19F-R8] | – | around 5 min
